Data set [1] deals with Nadorcott variety (mandarin). Kind of data set: Treatment of entire trees, number of seeds in the fruit. Type of data set: in vivo.
The test system of data set [2] is cucumber fruit Cucumis sativus L. Kind of data set: Treatment of individual flowers, observation of the fruit formed (seeds). In kind it is in vivo. Particulars: scale Fruit. From the text:
(§1) Fruit: treatment of individual flowers and subsequent observation of the fruit formed from the treated flower. […] C+=Positive control=flower pollinated but NOT treated with the active product; PT=Pollen tubes (fluorescent fibres); AP=Active product.

For data set [3], the system named is watermelons Citrullus lanatus (Thunb.) Matsum. & Nakai. Put plainly: Treatment of individual flowers, pollen tubes in the stigma. Type of data set: in vivo. How it is done: Flower: treatment on individual flowers and microscopic observation of fluorescence. In this case the presence or absence of pollen tubes (PT) in the stigma was assessed as was their percentage reduction compared to positive controls. Fruit: treatment of individual flowers and subsequent observation of the fruit formed from the treated flower. […] C+=Positive control=flower pollinated but NOT treated with the active product; PT=Pollen tubes (fluorescent fibres); AP=Active product.

Data set [4] relates to lemons Citrus limon L. Burm. f. Kind of data set: Treatment of individual pollinated flowers, pollen tubes in the stigma. Type of data set: in vivo. On the procedure:
(§2) Flower: treatment on individual flowers and microscopic observation of fluorescence. In this case the presence or absence of pollen tubes (PT) in the stigma was assessed as was their percentage reduction compared to positive controls. […] C+=Positive control=flower pollinated but NOT treated with the active product; PT=Pollen tubes (fluorescent fibres); AP=Active product.

Data set [5] has as its system clementine fina Citrus clementine hort. Ex Tanaka. The data set is described as above. In kind it is in vivo. On the procedure:
as §2

The test system of data set [6] is clemenules Citrus clementine hort. Ex Tanaka. Described as above. Type of data set: in vivo. How it is done:
as §2

Data set [7] deals with Murcott Citrus reticulata White. Described as above. Type of data set: in vivo. How it is done:
as §2

For data set [8], the system named is Nadorcott (mandarin). The data set is described as above. In kind it is in vivo. On the procedure:
as §2

The subject of data set [9] is Nova. C. clementine x [C.paradisi x C.tangerina]. Described as above. In kind it is in vivo. On the procedure:
as §2

In data set [10] the test system is Mexican lime. The description is as above. Type of data set: in vivo. On the procedure:
as §2

Data set [11] deals with Sweet orange. The data set is described as above. In kind it is in vivo, orange tree. On the procedure: as §2
Data set [12] relates to flowers of the Nadorcott mandarin. Put plainly: Action over time, pre-pollination treatment of flowers, seeds in fruit. Type of data set: in vivo. The conditions noted are these: flowers treated, then pollinated D0 to D9; positive control 4.67 seeds. How it is done:
(§3) In order to study the action over time of the product, two experiments were carried out on the flowers of the Nadorcott mandarin, one pre-pollination and the other post-pollination. In the pre-pollination experiment 300 flowers were treated with the product of the invention (S8) and subsequently pollinated in batches. One batch was pollinated on the same day (D0) and another batch the following day (D1), and so on successively until D9.

Data set [13] concerns common bumblebee (Bombus sp.). Kind of data set: Effects on pollinators, laboratory mortality test. Type of data set: in vivo. The conditions noted are these: for toxicity classification for bumblebees / pollinators: international scale: non-toxic = acute LD50 >100 μg/bee.
The subject of data set [14] is aubergines Solanum melongena L. Put plainly: Treatment of individual flowers, fruit seeds and pollen tubes in the stigma. In kind it is in vivo.
Description: as §1

Data set [15] concerns pollen grains. Put plainly: Germination of pollen grains on Petri dishes. Type of data set: cell-based. Particulars: assessed after 72 hours. On the procedure: The action of the product on the germination of pollen grains was studied. To that end, pollen grains were sown on Petri dishes in laboratory conditions to which growing medium increasing concentrations of the active product (S8) were added. After 72 hours they were assessed and the number of germinated pollen grains were counted on each Petri dish.
A non-toxic, neutral product (sample), KNO3 was used for comparing the results with those obtained from the active product (AP).

In data set [16] the test system is stigma papilla cells of mandarin flower. Put plainly: Microscopy of stigma treated with sulphur only or gibberellic acid only. Type of data set: in vivo. The conditions noted are these: for state of stigma papilla cells (semi-thin cut): mandarin stigma treated with a single component only; for pollen tubes in the stigma of pollinated mandarin flower (fluorescence microscope): treated with a single component only. From the text: The active ingredient sulphur, preferably in the form of an octatomic molecule (S8), is responsible for preventing the formation of seeds through the alteration of papilla cells of the stigma, whilst the GA is responsible for re-establishing the stimuli needed for the formation of the fruit, thus preventing a possible reduction in yield. The need for GA will depend on each crop and its parthenocarpic capacity. […] This mechanism is substantially due to the effect of sulphur. […] The effect of the active ingredient (sulphur) and gibberellic acid (GA) on papilla cells can be compared separately in FIGS. 6 and 7 through semi-thin microscope cuts.

The test system of data set [17] is Nadorcott (mandarin). Kind of data set: Field treatment by tractor on entire rows of adult trees, seeds. In kind it is in vivo. The conditions noted are these: scale Field. From the text: Field: treatments by tractor on entire rows of adult trees.
Data set [18] deals with adult trees of the Nadorcott mandarin variety. Kind of data set: Phyto-toxicity on sprayed adult trees (chlorosis, necrosis, defoliation). Type of data set: in vivo. The conditions noted are these: recommended concentrations (below 4%); listed as active product. How it is done: Phyto-toxicity tests were performed on adult trees of the Nadorcott mandarin variety. The trees were sprayed with different concentrations of the active product (S8). The level of affection on chlorosis, necrosis and defoliation was assessed, on a scale of 1 to 6, with 1 being very low and 6 being very high.

Data set [19] deals with flowers of the Nadorcott mandarin. Put plainly: Action over time, post-pollination treatment of flowers, seeds in fruit. In kind it is in vivo. On the procedure: as §3, with “D9. In the post-pollination experiment 360 flowers were first pollinated. In this case, after first having been pollinated a batch was treated with the product on the same day (D0), another batch the following day (D1) and so on successively until day 9 (D9).” for “D9.”

Data set [20] deals with Grapefruit. Kind of data set: Treatment of individual pollinated flowers, pollen tubes in the stigma. In kind it is in vivo, grapefruit tree. On the procedure: as §2
In data set [21] the test system is grapes Vitis vinifera L. Put plainly: Treatment of individual pollinated flowers, pollen tubes in the stigma by fluorescence microscopy. Type of data set: in vivo. How it is done:
as §2

The conditions of data set [22]: purified powder; cited from earlier work.
For data set [23], the system named is mandarin. The conditions noted are these: literature [1,2]; cited from earlier work.

Where “and” joins values, the source holds several entries; their conditions need not be identical. Equal entries are not always repeated. Entries after “also recorded” stand apart in the source; their conditions may differ.

`OC[C@H]1O[C@@](CO)(O[C@H]2O[C@H](CO)[C@@H](O)[C@H](O)[C@H]2O)[C@@H](O)[C@@H]1O` [Treatment T6, sucrose, reference compound]: in data set [1] (entire Nadorcott trees, about 120 fruits per treatment, positive control C+ 3.3), the “mean number of seeds in the fruit” value is 3.183.

For the compound `S1SSSSSSS1` [(S8), sulphur (S) as an octatomic molecule (S8)], the red. seeds result in [2] is “=100% red. seeds (FIG. 10A and 10B)”; in data set [14] (Aubergine, scale Fruit), “=100% red. seeds (FIG. 11A and 11B)”. Moreover, the “red. of PT” value in data set [3] (Watermelon, scale printed Fruit) was “=100% red. of PT (FIG. 12A and 12B)”; in data set [4] (Lemon, scale Flower), “=100% red. of PT (FIG. 17A and 17B)”; in data set [5] (Fina, scale Flower) it was “=100% red. of PT (FIG. 14A and 14B)”; in data set [6] (Clemenules, scale Flower) it was “=100% red. of PT (FIG. 13A and 13B)”; in data set [7] (scale Flower) it was “=100% red. of PT (FIG. 15A and 15B)”; in [8] (Nadorcott, scale Flower) it was “=100% red. of PT”. The “red. of PT” value was “=100% red. of PT (FIG. 16A and 16B)” in [9] (Nova (tangelo), scale Flower); “=100% red. of PT (FIG. 20)” in data set [10] (scale Flower); “=100% red. of PT (FIG. 18)” in data set [11] (Sweet orange, scale Flower); “=100% red. of PT (FIG. 19)” in data set [20] (Grapefruit, scale Flower); “=100% red. of PT (FIG. 9A and 9B)” in data set [21] (Vid, scale Flower, vs positive control). In addition, the “pollen tubes in treated stigma (fluorescence image)” value in data set [3] (watermelon), in [4] (lemon), in data set [5] (clementine fina), in data set [6] (clemenules), in data set [7] and in [9] (Nova) was “without PT” each time. Moreover, the “pollen tubes in treated stigma (fluorescence image)” value in data set [14] (aubergine) is “without PT”; in data set [21] (grape, pollinated flower) it was “without PT”. Besides, the “efficiencies when applied directly on the flower” value in [8] (direct application on the flower) is listed as 95-100%. Further, the “pollen tubes in treated pollinated flowers (fluorescence image)” value in [10], in data set [11] (orange tree) and in data set [20] (grapefruit tree) was “No visible PT” each time. The “seeds in fruit after pre-pollination treatment” value in data set [12] is “did not present a single seed”. For the same compound, the mortality rate in data set [13] (bumblebees, at 48 h) is reported as 50%. The results for the “toxicity classification for bumblebees / pollinators” value in data set [13] (listed as active ingredient) and in data set [13] (listed as active product) were “non-toxic” and “non-toxic for pollinator insects”, respectively. The red. of seeds in data set [1] (Nadorcott, scale Tree) is reported as roughly 85%; in data set [17], “=81% red. of seeds”. Also, in data set [1] (entire Nadorcott trees, six experimental products compared), the “reduction of the average number of seeds compared to the positive control (in words)” value is on record as “only one to significantly reduce the average number of seeds”. The “mean number of seeds in the fruit” value in [1] (entire Nadorcott trees, about 120 fruits per treatment, positive control C+ 3.3, listed as T1) was 0.4 and 0.4083. Also, in data set [15], the “concentration at which inhibition of pollen grain germination is total” value is 2000 mg/L. Also, the “state of stigma papilla cell (TEM)” value in data set [16] (TEM, crop not stated) is “lost turgidity and part of its components and appears collapsed”. In addition, the “state of stigma papilla cells (semi-thin cut)” value (shortened to “state of stigma papilla cells”) in data set [16] is on record as “damaged”; in [16] (listed as active ingredient (sulphur)), “damaged stigma, without turgidity”. Further, the “pollen tubes in the stigma of pollinated mandarin flower (fluorescence microscope)” value in data set [16] (listed as active ingredient (S8)) is “without pollen tubes; also recorded: no pollen tubes in the stigmatic area”. The “phyto-toxicity (chlorosis, necrosis, defoliation)” value in data set [18] was “does not produce necrosis, chlorosis or defoliation; also recorded: not phyto-toxic”. Also, the “seeds prevented, post-pollination treatment” value in data set [19] (treated D0 to D3 after pollination, positive control 4.7 seeds) is 100%; in data set [19] (treated D4-D9 after pollination), “approximately 50%”.

Turning to `C=C1C[C@]23C[C@@]1(O)CC[C@H]2[C@@]12C=C[C@H](O)[C@@](C)(C(=O)O1)[C@H]2[C@@H]3C(=O)O` [GA, gibberellic acid, reference compound], in data set [16], the “state of stigma papilla cells” value was “intact, functional and turgid”; the “pollen tubes in the stigma of pollinated mandarin flower (fluorescence microscope)” value is given as “developed pollen tubes can be clearly observed”. For the same compound, in [16] (listed as gibberellic acid), the “state of stigma papilla cells” value is “good, functional and turgid”; the “pollen tubes in the stigma of pollinated mandarin flower (fluorescence microscope)” value is listed as “presence of pollen tubes inside the stigma can be clearly seen”. For the same compound, in data set [22], the solubility in ethanol result is reported as “soluble in ethanol” and the solubility in water result was “somewhat soluble in water”. In data set [23], the “effectiveness for reducing the number of seeds in real field conditions (in words)” value is “not effective for reducing the number of seeds”.

`O=[N+]([O-])[O-].[K+]` [Treatment T3, potassium nitrate, reference compound]: the “mean number of seeds in the fruit” value in data set [1] (in vivo) was determined as 3.333.

(Values after patent US20220346381A1, “COMPOSITION FOR PREVENTING THE FORMATION OF SEEDS IN FRUIT” (ASOCIACION CLUB DE VARIEDADES VEGETALES PROTEGIDAS, priority 2019, published 2022).)
